Source: patent US7842710B2, “Carboxamides” (Bayer Cropscience AG, priority 2004, dated 2010)

Experiments:
[1] = system: Puccinia recondita; test: Puccinia test (wheat)/protective; assay type: in vivo; details: 240 h, protective, application rate 500 g/ha, evaluation ten days after inoculation, 0% = control, 100% = no infestation, read-out: Degree of effectiveness in %
Protocol: [table] To produce an appropriate active ingredient preparation, one part by weight of the active substance is mixed with the specified quantities of solvent and emulsifying agent, and the concentrate is diluted with water to the desired concentration. Young plants are sprayed with the active ingredient preparation at the specified application rate to test the effectiveness of protection. After the sprayed coating has dried, the plants are sprayed with a conidia suspension of Puccinia recondita. The plants are kept in an incubator at 20° C. and 100% relatively humidity for 48 hours. Then the plants are placed in a greenhouse at a temperature of about 20° C. and a relatively humidity of 80%, in order to promote the development of rust spots. The evaluation is performed ten days after the inoculation. A degree of effectiveness rating of 0% corresponds to the control, with 100% indicating no infestation observed.

[2] = logP determination by HPLC on a reverse phase column (C18), EEC Directive 79/831 Annex V.A8; assay type: physicochemical; details: HPLC C18, 43° C., Table 1
Protocol: The specified logP values are determined by HPLC on a reverse phase column (C18) in accordance with EEC Directive 79/831 Annex V.A8. Temperature: 43° C. Eluents for the measurement in the acid range (pH 2.3): 0.1% aqueous phosphoric acid, acetonitrile; linearer gradient of 10% acetonitrile to 90% acetonitrile. Calibration is performed with unbranched alkyl-2-ones (with 3 to 16 carbon atoms) with known logP values (determination of the logP values based on retention times by linear interpolation between two sequential alkyl ketones).

logP (pH 2.3) [2] | Structure (SMILES) | pest or weed control at 500 g/ha [1]
 | Cc1nn(C)c(F)c1C(=O)Nc1ccccc1C(C)OC(C)C (stereo not drawn) | 100%
 | CCC(C)SC(C)c1ccccc1NC(=O)c1sccc1C (stereo not drawn) | 100%
 | CC(C)SC(C)c1ccccc1NC(=O)c1c(C(F)(F)F)nn(C)c1F (stereo not drawn) | 96%
 | Cc1nn(C)c(Cl)c1C(=O)Nc1ccccc1C(C)SC(C)C (stereo not drawn) | 100%
 | CCCC(C)SC(C)c1ccccc1NC(=O)c1c(C)nn(C)c1Cl (stereo not drawn) | 100%
 | Cc1nn(C)c(Cl)c1C(=O)Nc1ccccc1C(C)SC1CCCC1 (stereo not drawn) | 100%
3.30 | CC(=O)OC(C)(C)CCc1ccccc1NC(=O)c1ccccc1C(F)(F)F [compound 61] | 
1.62 | Cn1cc(C(=O)Nc2ccccc2CCO)c(C(F)(F)F)n1 [compound 62] | 
1.21 | Cc1nn(C)c(F)c1C(=O)Nc1ccccc1CCO [compound 63] | 
2.79 | CC(C)C(=O)OCCc1ccccc1NC(=O)c1cn(C)nc1C(F)(F)F [compound 64] | 
4.59 | Cn1cc(C(=O)Nc2ccccc2CCO[Si](C)(C)C(C)(C)C)c(C(F)(F)F)n1 [compound 65] | 
2.76 | Cn1cc(C(=O)Nc2ccccc2CCOC(=O)C(Cl)Cl)c(C(F)(F)F)n1 [compound 66] | 
2.40 | Cc1nn(C)c(F)c1C(=O)Nc1ccccc1CCOC(=O)C(C)C [compound 67] | 
2.43 | Cc1nn(C)c(F)c1C(=O)Nc1ccccc1CCOC(=O)C(Cl)Cl [compound 68] | 
4.49 | Cc1nn(C)c(F)c1C(=O)Nc1ccccc1CCO[Si](C)(C)C(C)(C)C [compound 69] | 
4.71 | CCCC(C)SC(C)c1ccccc1NC(=O)c1ccccc1C(F)(F)F (stereo not drawn) [compound 70] | 
4.60 | CCCC(C)SC(C)c1ccccc1NC(=O)c1ccccc1Cl (stereo not drawn) [compound 72] | 
4.17 | CCC(C)SC(C)c1ccccc1NC(=O)c1ccccc1Cl (stereo not drawn) [compound 73] | 
4.17 | CCC(C)SC(C)c1ccccc1NC(=O)c1ccoc1C (stereo not drawn) [compound 74] | 
4.31 | CCC(C)SC(C)c1ccccc1NC(=O)c1ccccc1C(F)(F)F (stereo not drawn) [compound 75] | 
4.61 | CCCC(C)SC(C)c1ccccc1NC(=O)c1ccoc1C (stereo not drawn) [compound 77] | 
3.95 | CCC(C)SC(C)c1ccccc1NC(=O)c1sc(C)nc1C(F)F (stereo not drawn) [compound 78] | 

logP (pH 2.3) [2] | Structure (SMILES) | pest or weed control at 500 g/ha [1]
4.36 | CCCC(C)SC(C)c1ccccc1NC(=O)c1sc(C)nc1C(F)F (stereo not drawn) [compound 79] | 
3.38 | CCC(C)SC(C)c1ccccc1NC(=O)c1cn(C)nc1C(F)F (stereo not drawn) [compound 80] | 
4.63 | CCCC(C)SC(C)c1ccccc1NC(=O)c1ccccc1Br (stereo not drawn) [compound 81] | 
3.27 | CCCC(C)SC(C)c1ccccc1NC(=O)c1cn(C)nc1C (stereo not drawn) [compound 82] | 
4.21 | CCC(C)SC(C)c1ccccc1NC(=O)c1ccccc1Br (stereo not drawn) [compound 83] | 
2.90 | CCC(C)SC(C)c1ccccc1NC(=O)c1cn(C)nc1C (stereo not drawn) [compound 84] | 
3.76 | CCCC(C)SC(C)c1ccccc1NC(=O)c1cn(C)nc1C(F)F (stereo not drawn) [compound 85] | 
4.07 | CCC(C)SC(C)c1ccccc1NC(=O)C1=C(C)OCCS1 (stereo not drawn) [compound 86] | 
4.53 | CCCC(C)SC(C)c1ccccc1NC(=O)C1=C(C)OCCS1 (stereo not drawn) [compound 87] | 
3.92 | CCC(C)SC(C)c1ccccc1NC(=O)c1cn(C)cc1C(F)(F)F (stereo not drawn) [compound 88] | 
4.10 | CCC(C)SC(C)c1ccccc1NC(=O)C1=C(C)OCCS1 (stereo not drawn) [compound 89] | 
3.16 | Cc1sccc1C(=O)Nc1ccccc1C(C)SC1CCCC1 (stereo not drawn) [compound 90] | 
4.31 | Cc1occc1C(=O)Nc1ccccc1C(C)SC1CCCC1 (stereo not drawn) [compound 91] | 
4.29 | CC(SC1CCCC1)c1ccccc1NC(=O)c1ccccc1Cl (stereo not drawn) [compound 92] | 
4.34 | CC(SC1CCCC1)c1ccccc1NC(=O)c1ccccc1Br (stereo not drawn) [compound 93] | 
4.24 | Cc1nc(C(F)(F)F)c(C(=O)Nc2ccccc2C(C)SC2CCCC2)s1 (stereo not drawn) [compound 94] | 
3.04 | Cc1nn(C)cc1C(=O)Nc1ccccc1C(C)SC1CCCC1 (stereo not drawn) [compound 95] | 
3.76 | CC(SC1CCCC1)c1ccccc1NC(=O)c1cn(C)nc1C(F)(F)F (stereo not drawn) [compound 96] | 
4.41 | CC(SC1CCCC1)c1ccccc1NC(=O)c1ccccc1C(F)(F)F (stereo not drawn) [compound 97] | 
3.65 | CC1=C(C(=O)Nc2ccccc2C(C)SC(C)C)SCCO1 (stereo not drawn) [compound 98] | 
4.44 | Cc1ccccc1C(=O)Nc1ccccc1C(C)SC1CCCC1 (stereo not drawn) [compound 99] | 
4.03 | Cc1nn(C)c(F)c1C(=O)Nc1ccccc1C(C)SC1CCCC1 (stereo not drawn) [compound 100] | 

logP (pH 2.3) [2] | Structure (SMILES) | pest or weed control at 500 g/ha [1]
3.48 | CC(SC1CCCC1)c1ccccc1NC(=O)c1cn(C)nc1C(F)F (stereo not drawn) [compound 101] | 
3.80 | Cc1occc1C(=O)Nc1ccccc1C(C)OC(C)C (stereo not drawn) [compound 126] | 
3.14 | CC(C)OC(C)c1ccccc1NC(=O)c1cn(C)nc1C(F)(F)F (stereo not drawn) [compound 127] | 
3.47 | CC1=C(C(=O)Nc2ccccc2C(C)OC(C)C)SCCO1 (stereo not drawn) [compound 128] | 
2.75 | CC(C)OC(C)c1ccccc1NC(=O)c1cn(C)nc1I (stereo not drawn) [compound 129] | 
3.83 | CC(C)OC(C)c1ccccc1NC(=O)c1ccccc1I (stereo not drawn) [compound 130] | 
3.58 | Cc1nc(C(F)F)c(C(=O)Nc2ccccc2C(C)OC(C)C)s1 (stereo not drawn) [compound 131] | 
2.72 | CC(C)OC(C)c1ccccc1NC(=O)c1cccnc1Cl (stereo not drawn) [compound 132] | 
3.65 | Cc1nc(C(F)(F)F)c(C(=O)Nc2ccccc2C(C)OC(C)C)s1 (stereo not drawn) [compound 133] | 
3.81 | CC(C)OC(C)c1ccccc1NC(=O)c1ccccc1C(F)(F)F (stereo not drawn) [compound 134] | 
2.89 | CC(C)OC(C)c1ccccc1NC(=O)c1cn(C)nc1C(F)F (stereo not drawn) [compound 135] | 
3.67 | CC(C)OC(C)c1ccccc1NC(=O)c1cnn(C)c1C(F)F (stereo not drawn) [compound 136] | 
3.64 | CC(C)OC(C)c1ccccc1NC(=O)C1=C(C(F)(F)F)OCCS1 (stereo not drawn) [compound 137] | 
5.60 | CC(C)OC(C)c1ccccc1NC(=O)c1cn(C)cc1C(F)(F)F (stereo not drawn) [compound 138] | 
1.61 | Cn1cc(C(=O)Nc2ccccc2CO)c(C(F)(F)F)n1 [compound 178] | 
 | CC(C)SC(C)c1ccccc1NC(=O)c1cn(C)nc1C(F)(F)F (stereo not drawn) [drawing 494] | 100%
 | Cc1nc(C(F)F)c(C(=O)Nc2ccccc2CSC(C)C)s1 [drawing 495] | 93%
 | CCCC(C)SC(C)c1ccccc1NC(=O)c1sc(C)nc1C(F)(F)F (stereo not drawn) [drawing 496] | 100%
 | CCC(C)SC(C)c1ccccc1NC(=O)c1c(C)nn(C)c1F (stereo not drawn) [drawing 497] | 100%
 | CCC(C)SC(C)c1ccccc1NC(=O)c1cn(C)nc1C(F)(F)F (stereo not drawn) [drawing 498] | 100%
 | CC(C)OC(C)c1ccccc1NC(=O)c1cn(C)nc1C(F)F (stereo not drawn) [drawing 499] | 100%
 | CC(C)OC(C)c1ccccc1NC(=O)c1cn(C)nc1C(F)(F)F (stereo not drawn) [drawing 500] | 100%
